Values quoted from earlier work in patent US11214548B2, “Cannabinoid receptor modulators” (priority 2009, dated 2022).

Experiments:
[1] = tested on: capsaicin-induced coughs; settings: guinea pigs; cited from earlier work
[2] = tested on: acute and chronic pain; settings: animal studies; cited from earlier work

CCCCC/C=C\C/C=C\C/C=C\C/C=C\CCCC(=O)NCCO [anandamide]
number of capsaicin-induced coughs [1]: dose-dependent inhibition | effect against acute and chronic pain from chemical, mechanical, and thermal pain stimuli [2]: effective
